Values of other authors in patent US9156879B1, “Chromatography media” (Merck Sharp & Dohme Corp., priority 2010, dated 2015).

conditions: critical micelle concentration of detergent

| Molecule | CMC % (w/v) |
| --- | --- |
| CCCCCCCC/C=C\CCCCCCCC(=O)OCCOCC(OCCO)C1OCC(OCCO)C1OCCO (stereo not drawn) [Tween 80] | 0.002 % (w/v) |
| Triton X-100 | 0.021 % (w/v) |
| LysoPC | 0.0004 % (w/v) |
| CCCCCCCCCCCCCCCC[N+](C)(C)C.[Br-] [C16TAB] | 0.04 % (w/v) |
| Nonidet P-40 | 0.017 % (w/v) |
| CCCCCCCCCCCCOCCOCCOCCOCCOCCOCCOCCOCCO [C12E8] | 0.005 % (w/v) |
| Deoxycholate | 0.21 % (w/v) |
| CCCCCCCCCCCCCC[N+](C)(C)CCCS(=O)(=O)[O-] [Zwittergent 3-14] | 0.011 % (w/v) |
| CCCCCCCCO[C@@H]1O[C@H](CO)[C@@H](O)[C@H](O)[C@H]1O [Octylglucoside] | 0.73 % (w/v) |
| C[C@H](CCC(=O)NCCC[N+](C)(C)CCCS(=O)(=O)[O-])[C@H]1CC[C@H]2[C@@H]3[C@H](O)C[C@@H]4C[C@H](O)CC[C@]4(C)[C@H]3C[C@H](O)[C@]12C [CHAPS, 3[(3-cholamidopropyl)dimethylammonio]-1-propanesulfonate] | 0.49 % (w/v) |
| C[C@H](CCC(=O)O)[C@H]1CC[C@H]2[C@@H]3[C@H](O)C[C@@H]4C[C@H](O)CC[C@]4(C)[C@H]3C[C@H](O)[C@]12C [Cholate] | 0.60 % (w/v) |
| CCCCCCCCCCCCOS(=O)(=O)[O-].[Na+] [SDS, sodium dodecyl sulfate] | 0.23 % (w/v) |
